The text below walks through data of patent US20200080157A1, “PROGNOSIS AND TREATMENT OF RELAPSING LEUKEMIA” (McMaster University, priority 2018, published 2020).

The test system of series [1] is human AML cells (CD45+CD33+). Nature of the series: Leukemic chimerism and growth rate in BM of AML-xenografted mice (FACS, serial BM aspirates). Conditions: for Leukemic chimerism levels following DRD2 antagonist therapy: mean ± SEM.
The subject of series [2] is human AML progenitors. Nature of the series: CFU (methylcellulose) progenitor assay of human AML cells purified from treated xenograft BM.
Series [3] relates to human AML cells. Put plainly: Flow cytometry of CD34/CD38 and LRC marker proteins (DRD2, SLC2A2, FASLG, FUT3) in human AML cells from xenograft BM. Type of series: in vivo, human AML cells in mice. Here is the method: Immunophenotyping for human hematopoietic cell surface markers was carried out using the following antibodies: V450-conjugated anti-CD45 (1:100; 2D1), APC-conjugated anti-CD33 (1:300; WM-33), PE-conjugated anti-CD34 (1:200; 581), FITC- or PE-conjugated anti-CD38 (1:100 or 1:500; HB7), FITC-conjugated anti-CD19 (1:100; HIB19), and APC-conjugated anti-CD3 (1:100; UCHT1; all from BD). In order to evaluate candidates from the LRC gene signature at the protein level, gene targets were identified with available commercial antibodies that had been validated for flow cytometry. Directly conjugated antibodies were used to detect human SLC2A2 (Alexa fluor 488-conjugated; 1:100; 199017; Novus Biologicals) and FASLG (FITC-conjugated; 1:100; SB93A; Thermo Fisher). Additionally, mouse anti-human primary antibodies that recognize human DRD2 (1:100; B-10; Santa Cruz) or FUT3 (1:100, F3, Thermo Fisher) were used, followed by incubation with an Alexa fluor 647- or 555-conjugated donkey anti-mouse secondary antibody ([…]; Thermo Fisher). In these cases of indirect staining, cells were first blocked with donkey serum (Jackson ImmunoResearch Laboratories) plus human FC block (eBioscience). […] When appropriate, fluorescence minus one and secondary antibody controls were used to optimize gating strategies for target cell populations. […]

The test system of series [4] is healthy human hematopoietic cells (CD45+). Put plainly: Healthy human hematopoietic chimerism and growth rate in xenografted mice. The note with it: healthy human grafts in mice. (In general: A xenograft is tissue or cells of one species grown in another, often human tumour cells in immunodeficient mice.)
The test system of series [5] is human AML leukemia initiating cells (LSCs). Nature of the series: Serial transplantation (limiting dilution) leukemia-initiating cell / LSC assay in secondary recipient mice. Type of series: in vivo, human AML cells in NOD/SCID or NSG mice. The text has this: The threshold for engraftment detection was set at ≥0.1% human chimerism.
A short description of series [6]: Treatment-related mortality on AraC dose intensification in AML-xenografted mice. Type of series: in vivo, mouse. Conditions: AraC 100 mg/kg, 5 consecutive days. An excerpt: This more aggressive regime produced unacceptable treatment-related mortality rates of 60%, which was not balanced by any therapeutic benefit in the few mice that survived.

Turning to `Nc1ccn([C@@H]2O[C@H](CO)[C@@H](O)[C@@H]2O)c(=O)n1` [AraC, Cytarabine], the “recipient mice with persisting residual disease” value in series [1] (AML patient #13 xenografts, AraC alone, 9 days after final AraC dose) stood at 50%. In addition, the “leukemic growth after AraC vs vehicle-treated controls” value in series [1] (AML xenografts, kinetic modeling of serial BM aspirates) is on record as “accelerated leukemic growth”. For the same compound, the “functional progenitors in residual leukemic populations (CFU)” value in series [2] (AML xenografts, 48 hr after AraC withdrawal) was “depleted”. Further, the “frequencies of primitive CD34+ and CD34+CD38− cells within residual AML populations” value in series [3] (AraC 5 consecutive days, xenograft BM 24-72 hr after final dose) was “strongly reduced”. The “re-growth rates of healthy human hematopoiesis after AraC cytoreduction” value in series [4] is “rates matching those of vehicle-treated controls”. In addition, in series [5] (AML xenografts, 48 hr after final AraC dose), the “functional LSCs (serial LIC transplantation)” value is given as “suppressed”. Besides, the “#Engrafted mice” value in series [5] (AML#2, +AraC, cell dose 1 × 10^6, cells transplanted 48 hr after final AraC dose) is 0/4; in series [5] (AML#2, +AraC, cell dose 2 × 10^5, cells transplanted 48 hr after final AraC dose), 0/4; in series [5] (AML#3, +AraC, cell dose 2 × 10^5, cells transplanted 48 hr after final AraC dose), 1/4; in series [5] (AML#3, +AraC, cell dose 3 × 10^4, cells transplanted 48 hr after final AraC dose), 0/3. Moreover, the treatment-related mortality rate in series [6] was found to be 60%.
As for `CSc1ccc2c(c1)N(CCC1CCCCN1C)c1ccccc1S2` (stereo not shown) [DRD2 antagonist, thioridazine], the “time to overt relapse” value in series [1] (AML #3 xenografts, AraC plus DRD2 antagonist vs AraC alone, relapse set at 20% leukemic chimerism, estimated from growth rates) is “nearly doubled”. Further, the “Leukemic chimerism levels following DRD2 antagonist therapy” value in series [1] (AML #5, LRCs (in combination with AraC)) came out at 1.4 ± 0.3; in series [1] (AML #5, Therapy-naive (single agent, no AraC)), 12.4 ± 2.2; in series [1] (AML #10, LRCs (in combination with AraC)) it was 16.9 ± 8.7; in series [1] (AML #11, LRCs (in combination with AraC)), 1.4 ± 1.4. Also, the “leukemic growth rates after AraC” value in series [1] (AML Patient #3 xenografts, DRD2 antagonist plus AraC vs AraC alone) is listed as “successfully disrupted”. The “recipients achieving disease-free status” value in series [1] (AML patient #13 xenografts, DRD2 antagonist added to AraC) is given as 100%. Also, the “overall cytoreductive activity of AraC (leukemic chimerism)” value in series [1] (in vivo delivery of DRD2 antagonist with AraC) is reported as “did not improve”. In addition, the “effect on progenitors of regenerating LRCs (CFU)” value in series [2] (DRD2 antagonist in combination with AraC, 9 days after last AraC dose) is given as “profound effects”. In addition, the “effect on AML progenitors arising from therapy-naive LSCs (CFU)” value in series [2] (DRD2 antagonist single agent, 21-day regimen, AML xenografts) was “moderately affected”. The “DRD2 protein expression in human leukemic cells from xenograft BM” value in series [3] (DRD2 antagonist with AraC, LRC stage) was “loss of DRD2 protein expression”. The “LIC content of therapy-naïve AML” value in series [5] (DRD2 antagonist single agent, AML #5, serial transplantation) is recorded as “did not impact”. Besides, in series [5] (DRD2 antagonist together with AraC, AML #5, serial transplantation 9 days post-AraC), the “LIC activity of AraC-exposed LRCs” value is “complete loss of LIC activity”. The “disease regeneration potential (secondary LIC assays and progenitor assays)” value in series [5] (DRD2 antagonist with AraC, three additional AML patient samples) is reported as “reproducibly blocked”.
